Laboratory results published in the kinase profiling compilation of Christmann-Franck et al. (2016).

Columns and labels:
Assay in all cases: KINOMEscan competition binding
Conditions in all cases: compound 10.0 µM
PTK6 (human) = PTK6 (human) (UniProt Q13882)
GAK (human) = GAK (human) (UniProt O14976)
CDK7 (human) = CDK7 (human) (UniProt P50613)
ALK (human) = ALK (human) (UniProt Q9UM73)
DCLK2 (human) = DCLK2 (human) (UniProt Q8N568)
MERTK (human) = MERTK (human) (UniProt Q12866)
EPHB6 (human) = EPHB6 (human) (UniProt O15197)
CAMK2B (human) = CAMK2B (human) (UniProt Q13554)
[1] = system: EGFR (human), P00533 [752-759 del]
ADCK4 (human) = ADCK4 (human) (UniProt Q96D53)
PAK4 (human) = PAK4 (human) (UniProt O96013)
ROS1 (human) = ROS1 (human) (UniProt P08922)
YES1 (human) = YES1 (human) (UniProt P07947)
EPHA6 (human) = EPHA6 (human) (UniProt Q9UF33)
PRKCD (human) = PRKCD (human) (UniProt Q05655)
MAK (human) = MAK (human) (UniProt P20794)
Chain of MAK (human) (P20794 whole entry, looked up): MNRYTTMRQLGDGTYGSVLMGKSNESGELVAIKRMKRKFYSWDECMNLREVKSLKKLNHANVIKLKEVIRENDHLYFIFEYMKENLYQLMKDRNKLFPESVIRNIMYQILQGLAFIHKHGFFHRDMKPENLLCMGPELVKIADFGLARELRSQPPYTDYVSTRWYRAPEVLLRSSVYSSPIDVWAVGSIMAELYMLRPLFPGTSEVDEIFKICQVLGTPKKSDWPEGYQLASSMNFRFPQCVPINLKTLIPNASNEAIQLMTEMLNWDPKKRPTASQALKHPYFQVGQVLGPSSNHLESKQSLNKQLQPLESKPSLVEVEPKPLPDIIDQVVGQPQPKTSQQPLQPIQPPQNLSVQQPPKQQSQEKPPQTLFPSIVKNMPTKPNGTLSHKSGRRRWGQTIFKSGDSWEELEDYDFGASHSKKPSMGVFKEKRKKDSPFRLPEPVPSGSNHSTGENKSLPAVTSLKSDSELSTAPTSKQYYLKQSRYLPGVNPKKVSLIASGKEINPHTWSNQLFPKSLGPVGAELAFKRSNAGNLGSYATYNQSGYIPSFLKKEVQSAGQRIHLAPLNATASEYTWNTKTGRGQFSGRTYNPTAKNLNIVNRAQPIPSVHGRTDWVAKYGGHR

MARK2 (human) = MARK2 (human) (UniProt Q7KZI7)
MAP3K7 (human) = MAP3K7 (human) (UniProt O43318)
SIK2 (human) = SIK2 (human) (UniProt Q9H0K1)
[2] = system: EGFR (human), P00533 [T790M/L858R]
CDK5 (human) = CDK5 (human) (UniProt Q00535)
MAP3K1 (human) = MAP3K1 (human) (UniProt Q13233)
MKNK2 (human) = MKNK2 (human) (UniProt Q9HBH9)
CSNK1G1 (human) = CSNK1G1 (human) (UniProt Q9HCP0)
BMPR2 (human) = BMPR2 (human) (UniProt Q13873)
PKN1 (human) = PKN1 (human) (UniProt Q16512)
RPS6KA5 KD1 (human) = RPS6KA5 KD1 (human) (UniProt O75582)
Chain of RPS6KA5 KD1 (human) (O75582 whole entry, looked up): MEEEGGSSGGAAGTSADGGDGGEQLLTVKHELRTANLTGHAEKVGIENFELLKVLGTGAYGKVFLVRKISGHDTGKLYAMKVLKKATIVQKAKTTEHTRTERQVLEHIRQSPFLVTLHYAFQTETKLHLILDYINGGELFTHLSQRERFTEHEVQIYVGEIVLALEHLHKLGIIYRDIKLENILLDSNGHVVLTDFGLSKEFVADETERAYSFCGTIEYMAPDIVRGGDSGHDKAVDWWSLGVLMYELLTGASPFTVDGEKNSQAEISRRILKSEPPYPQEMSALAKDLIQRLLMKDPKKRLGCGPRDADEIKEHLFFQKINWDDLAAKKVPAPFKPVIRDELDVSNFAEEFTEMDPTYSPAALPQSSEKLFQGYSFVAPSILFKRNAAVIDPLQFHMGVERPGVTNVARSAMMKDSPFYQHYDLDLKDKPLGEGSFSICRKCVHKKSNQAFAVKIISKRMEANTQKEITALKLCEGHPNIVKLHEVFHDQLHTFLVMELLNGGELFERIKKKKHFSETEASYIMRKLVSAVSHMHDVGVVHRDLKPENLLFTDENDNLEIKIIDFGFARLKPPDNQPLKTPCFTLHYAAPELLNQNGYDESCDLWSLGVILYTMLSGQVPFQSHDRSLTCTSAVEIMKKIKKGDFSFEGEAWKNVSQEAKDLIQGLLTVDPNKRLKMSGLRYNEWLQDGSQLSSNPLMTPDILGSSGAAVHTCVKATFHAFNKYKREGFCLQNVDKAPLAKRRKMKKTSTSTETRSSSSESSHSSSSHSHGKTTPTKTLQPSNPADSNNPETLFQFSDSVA

NTRK1 (human) = NTRK1 (human) (UniProt P04629)
Chain of NTRK1 (human) (P04629 whole entry, looked up): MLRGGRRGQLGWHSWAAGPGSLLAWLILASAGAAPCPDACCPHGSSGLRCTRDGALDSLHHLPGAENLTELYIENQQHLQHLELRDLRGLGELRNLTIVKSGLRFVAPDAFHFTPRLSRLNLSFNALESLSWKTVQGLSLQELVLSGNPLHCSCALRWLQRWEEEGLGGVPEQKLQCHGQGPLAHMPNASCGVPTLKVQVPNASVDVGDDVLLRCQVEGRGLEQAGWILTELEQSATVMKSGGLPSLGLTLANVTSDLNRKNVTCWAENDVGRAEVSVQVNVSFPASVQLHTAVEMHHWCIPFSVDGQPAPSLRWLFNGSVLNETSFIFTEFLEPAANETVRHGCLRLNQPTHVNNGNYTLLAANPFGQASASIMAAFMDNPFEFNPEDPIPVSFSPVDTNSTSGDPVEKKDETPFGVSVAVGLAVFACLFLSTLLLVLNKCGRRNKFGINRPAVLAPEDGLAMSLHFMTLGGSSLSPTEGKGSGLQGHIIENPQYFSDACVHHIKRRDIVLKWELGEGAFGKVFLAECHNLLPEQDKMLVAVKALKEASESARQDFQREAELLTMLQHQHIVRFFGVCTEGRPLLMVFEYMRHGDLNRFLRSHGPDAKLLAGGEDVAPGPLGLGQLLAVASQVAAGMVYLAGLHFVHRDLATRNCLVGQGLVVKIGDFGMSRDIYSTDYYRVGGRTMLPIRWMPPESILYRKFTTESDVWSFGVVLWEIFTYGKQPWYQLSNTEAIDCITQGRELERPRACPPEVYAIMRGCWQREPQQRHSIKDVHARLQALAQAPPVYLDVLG

HUNK (human) = HUNK (human) (UniProt P57058)
Chain of HUNK (human) (P57058 whole entry, looked up): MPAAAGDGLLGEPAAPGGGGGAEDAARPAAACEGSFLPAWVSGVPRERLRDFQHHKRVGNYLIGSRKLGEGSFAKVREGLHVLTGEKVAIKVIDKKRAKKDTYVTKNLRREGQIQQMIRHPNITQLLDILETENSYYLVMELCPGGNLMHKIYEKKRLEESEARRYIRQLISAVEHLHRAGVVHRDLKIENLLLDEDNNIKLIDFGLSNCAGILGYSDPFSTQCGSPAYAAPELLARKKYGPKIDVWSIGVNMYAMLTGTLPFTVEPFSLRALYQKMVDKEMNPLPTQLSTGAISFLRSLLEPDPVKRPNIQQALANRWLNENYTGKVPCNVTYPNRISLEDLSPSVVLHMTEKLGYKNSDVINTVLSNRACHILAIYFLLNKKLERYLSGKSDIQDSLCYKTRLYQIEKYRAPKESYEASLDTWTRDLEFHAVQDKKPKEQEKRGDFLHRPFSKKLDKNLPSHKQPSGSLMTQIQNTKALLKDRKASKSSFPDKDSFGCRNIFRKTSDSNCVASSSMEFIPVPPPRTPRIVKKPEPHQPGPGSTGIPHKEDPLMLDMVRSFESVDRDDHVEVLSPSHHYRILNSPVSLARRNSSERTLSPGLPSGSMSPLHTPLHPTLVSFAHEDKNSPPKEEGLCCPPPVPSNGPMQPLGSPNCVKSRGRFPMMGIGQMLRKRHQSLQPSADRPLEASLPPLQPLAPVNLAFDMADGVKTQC

PRKX (human) = PRKX (human) (UniProt P51817)
STK11 (human) = STK11 (human) (UniProt Q15831)
Chain of STK11 (human) (Q15831 whole entry, looked up): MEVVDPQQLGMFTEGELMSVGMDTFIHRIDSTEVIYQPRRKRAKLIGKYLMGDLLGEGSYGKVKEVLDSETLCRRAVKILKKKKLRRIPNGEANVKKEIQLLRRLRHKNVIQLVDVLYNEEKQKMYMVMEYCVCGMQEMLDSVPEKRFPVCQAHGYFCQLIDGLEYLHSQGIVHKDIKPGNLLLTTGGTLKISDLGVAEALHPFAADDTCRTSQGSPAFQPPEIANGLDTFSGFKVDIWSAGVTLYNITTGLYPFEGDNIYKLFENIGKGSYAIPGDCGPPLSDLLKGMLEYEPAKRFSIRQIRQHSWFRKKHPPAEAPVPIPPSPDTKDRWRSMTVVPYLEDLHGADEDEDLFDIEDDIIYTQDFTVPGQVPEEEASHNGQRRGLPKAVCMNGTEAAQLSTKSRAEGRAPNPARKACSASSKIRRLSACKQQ

MAPK10 (human) = MAPK10 (human) (UniProt P53779)
DYRK1B (human) = DYRK1B (human) (UniProt Q9Y463)
RAF1 (human) = RAF1 (human) (UniProt P04049)
CDC42BPB (human) = CDC42BPB (human) (UniProt Q9Y5S2)
MELK (human) = MELK (human) (UniProt Q14680)
NTRK2 (human) = NTRK2 (human) (UniProt Q16620)
GRK1 (human) = GRK1 (human) (UniProt Q15835)
LCK (human) = LCK (human) (UniProt P06239)
Chain of LCK (human) (P06239 whole entry, looked up): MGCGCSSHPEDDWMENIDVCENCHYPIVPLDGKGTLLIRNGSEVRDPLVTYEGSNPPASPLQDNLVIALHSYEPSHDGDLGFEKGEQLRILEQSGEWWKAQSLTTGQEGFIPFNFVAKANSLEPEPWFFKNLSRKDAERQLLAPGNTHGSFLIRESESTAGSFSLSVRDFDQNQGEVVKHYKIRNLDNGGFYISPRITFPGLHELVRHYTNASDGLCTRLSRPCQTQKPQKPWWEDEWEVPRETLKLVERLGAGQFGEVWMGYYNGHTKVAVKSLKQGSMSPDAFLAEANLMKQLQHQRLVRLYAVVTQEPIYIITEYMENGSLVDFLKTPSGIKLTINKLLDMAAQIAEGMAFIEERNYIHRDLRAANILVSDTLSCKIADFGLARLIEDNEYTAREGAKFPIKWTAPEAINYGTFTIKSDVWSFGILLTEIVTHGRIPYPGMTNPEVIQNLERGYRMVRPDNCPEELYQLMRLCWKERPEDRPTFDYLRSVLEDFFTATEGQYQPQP

PKN2 (human) = PKN2 (human) (UniProt Q16513)

Chain of MERTK (human) (Q12866 whole entry, looked up): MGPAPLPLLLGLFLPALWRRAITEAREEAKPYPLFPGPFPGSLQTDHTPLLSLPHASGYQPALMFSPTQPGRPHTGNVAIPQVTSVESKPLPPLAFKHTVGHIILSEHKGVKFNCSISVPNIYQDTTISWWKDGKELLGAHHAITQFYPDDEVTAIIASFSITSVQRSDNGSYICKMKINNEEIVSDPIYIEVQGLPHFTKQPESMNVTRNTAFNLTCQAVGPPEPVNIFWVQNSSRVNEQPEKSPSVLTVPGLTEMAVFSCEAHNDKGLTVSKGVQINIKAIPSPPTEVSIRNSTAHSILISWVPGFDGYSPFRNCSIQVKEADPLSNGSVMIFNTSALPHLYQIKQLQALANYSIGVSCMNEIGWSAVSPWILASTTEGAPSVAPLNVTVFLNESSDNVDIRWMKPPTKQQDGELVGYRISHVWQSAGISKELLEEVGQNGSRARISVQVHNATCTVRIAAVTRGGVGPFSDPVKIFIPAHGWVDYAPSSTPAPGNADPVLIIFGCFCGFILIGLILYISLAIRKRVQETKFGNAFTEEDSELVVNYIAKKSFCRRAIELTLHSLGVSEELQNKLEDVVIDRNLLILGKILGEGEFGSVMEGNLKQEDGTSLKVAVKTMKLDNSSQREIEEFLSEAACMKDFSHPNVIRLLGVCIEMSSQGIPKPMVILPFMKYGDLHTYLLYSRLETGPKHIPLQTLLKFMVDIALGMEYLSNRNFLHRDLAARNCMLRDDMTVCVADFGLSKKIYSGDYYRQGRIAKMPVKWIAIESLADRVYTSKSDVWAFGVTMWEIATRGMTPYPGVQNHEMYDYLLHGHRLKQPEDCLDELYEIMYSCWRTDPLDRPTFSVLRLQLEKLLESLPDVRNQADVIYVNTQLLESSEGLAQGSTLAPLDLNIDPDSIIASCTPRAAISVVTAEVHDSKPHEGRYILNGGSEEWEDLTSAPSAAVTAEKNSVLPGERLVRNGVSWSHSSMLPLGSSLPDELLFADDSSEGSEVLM

| SMILES | kinase still bound, per cent of control (PTK6 (human)) [%] | kinase still bound, per cent of control (GAK (human)) [%] | kinase still bound, per cent of control (CDK7 (human)) [%] | kinase still bound, per cent of control (ALK (human)) [%] | kinase still bound, per cent of control (DCLK2 (human)) [%] | kinase still bound, per cent of control (MERTK (human)) [%] | kinase still bound, per cent of control (EPHB6 (human)) [%] | kinase still bound, per cent of control (CAMK2B (human)) [%] | kinase still bound, per cent of control [1] [%] | kinase still bound, per cent of control (ADCK4 (human)) [%] | kinase still bound, per cent of control (PAK4 (human)) [%] | kinase still bound, per cent of control (ROS1 (human)) [%] | kinase still bound, per cent of control (YES1 (human)) [%] | kinase still bound, per cent of control (EPHA6 (human)) [%] | kinase still bound, per cent of control (PRKCD (human)) [%] | kinase still bound, per cent of control (MAK (human)) [%] | kinase still bound, per cent of control (MARK2 (human)) [%] | kinase still bound, per cent of control (MAP3K7 (human)) [%] | kinase still bound, per cent of control (SIK2 (human)) [%] | kinase still bound, per cent of control [2] [%] | also measured |
| --- | --- | --- | --- | --- | --- | --- | --- | --- | --- | --- | --- | --- | --- | --- | --- | --- | --- | --- | --- | --- | --- |
| O=c1cc(N2CCOCC2)oc2c(-c3cccc4c3sc3ccccc34)cccc12 | 98 | 89 | 100 | 100 | 100 | 100 | 100 | 80 | 100 | 73 | 80 | 90 | 94 | 89 | 80 | 43 | 90 | 100 | 75 | 93 | kinase still bound, per cent of control (CDK5 (human)): 100%; kinase still bound, per cent of control (MAP3K1 (human)): 100%; kinase still bound, per cent of control (MKNK2 (human)): 87%; kinase still bound, per cent of control (CSNK1G1 (human)): 92%; kinase still bound, per cent of control (BMPR2 (human)): 83%; kinase still bound, per cent of control (PKN1 (human)): 100%; kinase still bound, per cent of control (RPS6KA5 KD1 (human)): 100%; kinase still bound, per cent of control (NTRK1 (human)): 81%; kinase still bound, per cent of control (HUNK (human)): 75%; kinase still bound, per cent of control (PRKX (human)): 89%; kinase still bound, per cent of control (STK11 (human)): 75%; kinase still bound, per cent of control (MAPK10 (human)): 100%; kinase still bound, per cent of control (DYRK1B (human)): 85%; kinase still bound, per cent of control (RAF1 (human)): 97%; kinase still bound, per cent of control (CDC42BPB (human)): 88%; kinase still bound, per cent of control (MELK (human)): 100%; kinase still bound, per cent of control (NTRK2 (human)): 100%; kinase still bound, per cent of control (GRK1 (human)): 100%; kinase still bound, per cent of control (LCK (human)): 90%; kinase still bound, per cent of control (PKN2 (human)): 86% |
| CS(=O)(=O)N1CCN(Cc2cc3nc(-c4cccc5[nH]ncc45)nc(N4CCOCC4)c3s2)CC1 | 100 | 100 | 100 | 100 | 100 | 100 | 100 | 100 | 100 | 100 | 100 | 100 | 100 | 100 | 100 | 100 | 100 | 100 | 100 | 100 | kinase still bound, per cent of control (CDK5 (human)): 100%; kinase still bound, per cent of control (MAP3K1 (human)): 100%; kinase still bound, per cent of control (MKNK2 (human)): 100%; kinase still bound, per cent of control (CSNK1G1 (human)): 100%; kinase still bound, per cent of control (BMPR2 (human)): 100%; kinase still bound, per cent of control (PKN1 (human)): 100%; kinase still bound, per cent of control (RPS6KA5 KD1 (human)): 100%; kinase still bound, per cent of control (NTRK1 (human)): 100%; kinase still bound, per cent of control (HUNK (human)): 100%; kinase still bound, per cent of control (PRKX (human)): 100%; kinase still bound, per cent of control (STK11 (human)): 100%; kinase still bound, per cent of control (MAPK10 (human)): 100%; kinase still bound, per cent of control (DYRK1B (human)): 100%; kinase still bound, per cent of control (RAF1 (human)): 100%; kinase still bound, per cent of control (CDC42BPB (human)): 100%; kinase still bound, per cent of control (MELK (human)): 100%; kinase still bound, per cent of control (NTRK2 (human)): 100%; kinase still bound, per cent of control (GRK1 (human)): 100%; kinase still bound, per cent of control (LCK (human)): 100%; kinase still bound, per cent of control (PKN2 (human)): 100% |
| COc1cc(N2CCN(C)CC2)ccc1Nc1ncc2c(n1)N(C)c1ccccc1C(=O)N2C | 7.6 | 9.8 | 100 | 16 | 0.45 | 100 | 34 | 100 | 100 | 100 | 100 | 7.6 | 100 | 100 | 100 | 100 | 100 | 100 | 100 | 100 | kinase still bound, per cent of control (CDK5 (human)): 100%; kinase still bound, per cent of control (MAP3K1 (human)): 100%; kinase still bound, per cent of control (MKNK2 (human)): 0%; kinase still bound, per cent of control (CSNK1G1 (human)): 100%; kinase still bound, per cent of control (BMPR2 (human)): 100%; kinase still bound, per cent of control (PKN1 (human)): 100%; kinase still bound, per cent of control (RPS6KA5 KD1 (human)): 100%; kinase still bound, per cent of control (NTRK1 (human)): 100%; kinase still bound, per cent of control (HUNK (human)): 100%; kinase still bound, per cent of control (PRKX (human)): 100%; kinase still bound, per cent of control (STK11 (human)): 100%; kinase still bound, per cent of control (MAPK10 (human)): 100%; kinase still bound, per cent of control (DYRK1B (human)): 100%; kinase still bound, per cent of control (RAF1 (human)): 100%; kinase still bound, per cent of control (CDC42BPB (human)): 100%; kinase still bound, per cent of control (MELK (human)): 100%; kinase still bound, per cent of control (NTRK2 (human)): 100%; kinase still bound, per cent of control (GRK1 (human)): 100%; kinase still bound, per cent of control (LCK (human)): 100%; kinase still bound, per cent of control (PKN2 (human)): 100% |
